Several values for one entry are separate records, joined by “and”; a condition that tells them apart may be missing. Equal values may be shown once. Toxic doses and inconclusive results are not listed. Square brackets hold non-standard residues; d marks the D form. Peptide text beside a SMILES is read from it. ξ: configuration not given here. Ac5c = NC1(C(=O)O)CCCC1; ξS = NC(CO)C(=O)O
Test system: P388 leukemia ip, CD2F1 mice, survival T/C
Assay: NCI In Vivo Anticancer Drug Screen. Data for tumor model P388 Leukemia (intraperitoneal) in CD2F1 (CDF1) mice
Settings: endpoint: median survival time, higher = longer survival
Summary of the method: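 Mice carrying the transplanted tumor received test compound or vehicle. Survival was recorded in each group, and the value is the treated-group measurement divided by that of the vehicle-treated control group.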

[1] = dose: 200.0 mg/kg/injection, schedule: Q01DX009 (ip), vehicle: saline with Tween-80
[2] = dose: 100.0 mg/kg/injection, schedule: Q04DX003 (ip), vehicle: saline with Tween-80
[3] = dose: 60.0 mg/kg/injection, schedule: Q01DX005 (ip), vehicle: saline with Tween-80
[4] = dose: 120.0 mg/kg/injection, schedule: Q01DX005 (ip), vehicle: saline with Tween-80

With COc1ccc2c(c1OC(C)=O)C1=CC(OC(C)=O)=CCC13CCN(C)C3C2 (configuration not stated) the T/C (dose: 50.0 mg/kg/injection, schedule: Q01DX005 (ip), vehicle: saline) was 102 % of control, the T/C (dose: 100.0 mg/kg/injection, schedule: Q01DX005 (ip), vehicle: saline) was 111 % of control and the T/C (dose: 200.0 mg/kg/injection, schedule: Q01DX005 (ip), vehicle: saline) was 99 % of control.
With COC(=O)/C(=C\C[C@@H]1CCCC[C@H]1O)CC[Se]c1ccccc1 the T/C (dose: 50.0 mg/kg/injection, schedule: Q01DX009 (ip), vehicle: distilled water + Tween-80 + alcohol) was 108 % of control, the T/C (dose: 100.0 mg/kg/injection, schedule: Q01DX009 (ip), vehicle: distilled water + Tween-80 + alcohol) was 103 % of control and the T/C (dose: 200.0 mg/kg/injection, schedule: Q01DX009 (ip), vehicle: distilled water + Tween-80 + alcohol) was 98 % of control.
O=[N+]([O-])c1ccc2c3c(ccc([N+](=O)[O-])c13)CC2 was tested, and the T/C (dose: 25.0 mg/kg/injection, schedule: Q01DX009 (ip), vehicle: Klucel (hydroxypropylcellulose) (HPC)) was 93 % of control, the T/C (dose: 50.0 mg/kg/injection, schedule: Q01DX009 (ip), vehicle: Klucel (hydroxypropylcellulose) (HPC)) was 93 % of control and the T/C (dose: 100.0 mg/kg/injection, schedule: Q01DX009 (ip), vehicle: Klucel (hydroxypropylcellulose) (HPC)) was 91 % of control.
CN(N=O)c1ccc(/C=C/c2ccnc3ccccc23)cc1 was tested, and the T/C (dose: 88.0 mg/kg/injection, schedule: Q01DX009 (ip), vehicle: saline with Tween-80) was 113 % of control, the T/C (dose: 132.0 mg/kg/injection, schedule: Q01DX009 (ip), vehicle: saline with Tween-80) was 118 % of control and the T/C [1] was 154 % of control.
With CC(=O)NC(N)=NC#N the T/C (dose: 50.0 mg/kg/injection, schedule: Q01DX001 (ip), vehicle: saline) was 98 % of control, the T/C (dose: 100.0 mg/kg/injection, schedule: Q01DX001 (ip), vehicle: saline) was 100 % of control and the T/C (dose: 200.0 mg/kg/injection, schedule: Q01DX001 (ip), vehicle: saline) was 96 % of control. The T/C (dose: 400.0 mg/kg/injection, schedule: Q01DX001 (ip), vehicle: saline) was 103 % of control.
CC[C@@]12C[C@]1(C(=O)OC)C(=O)N1CCc3c([nH]c4ccccc34)[C@H]12 was tested, and the T/C (dose: 50.0 mg/kg/injection, schedule: Q01DX005 (ip), vehicle: Klucel (hydroxypropylcellulose) (HPC)) was 90 % of control, the T/C (dose: 100.0 mg/kg/injection, schedule: Q01DX005 (ip), vehicle: Klucel (hydroxypropylcellulose) (HPC)) was 96 % of control and the T/C (dose: 200.0 mg/kg/injection, schedule: Q01DX005 (ip), vehicle: Klucel (hydroxypropylcellulose) (HPC)) was 91 % of control.
With NC(CO)C(=O)NC1(C(=O)O)CCCC1 (configuration not stated) (H-[ξS]-[Ac5c]-OH) the T/C [2] was 95 % of control, the T/C (dose: 200.0 mg/kg/injection, schedule: Q04DX003 (ip), vehicle: saline with Tween-80) was 100 % of control and the T/C (dose: 400.0 mg/kg/injection, schedule: Q04DX003 (ip), vehicle: saline with Tween-80) was 120 % of control.
In the case of O=C(c1ccccc1)C(O)O, the T/C (dose: 25.0 mg/kg/injection, schedule: Q04DX003 (ip), vehicle: saline with Tween-80) is reported as 103 % of control, the T/C (dose: 50.0 mg/kg/injection, schedule: Q04DX003 (ip), vehicle: saline with Tween-80) is reported as 106 % of control and the T/C [2] is reported as 106 % of control and 109 % of control.
For COc1ccc(/C=C/C(=N/Nc2ccccc2)C(C)CN(C)C)cc1 (configuration not stated), the T/C [3] was 101 % of control and the T/C [4] was 95 % of control.
Nc1nc(N)c2nc(-c3ccc([N+](=O)[O-])cc3)c(=O)[nH]c2n1 was tested, and the T/C [3] was 94 % of control, the T/C [4] was 91 % of control and the T/C (dose: 240.0 mg/kg/injection, schedule: Q01DX005 (ip), vehicle: saline with Tween-80) was 91 % of control.
For CNCCN=c1ccc2c3c1c(O)c1c(O)ccc(=O)c1c3[nH]n2CCNCCO, the T/C (dose: 1.56 mg/kg/injection, schedule: Q04DX002 (ip), vehicle: water) was 167 % of control and 186 % of control, the T/C (dose: 3.12 mg/kg/injection, schedule: Q04DX002 (ip), vehicle: water) was 177 % of control and 268 % of control and the T/C (dose: 6.25 mg/kg/injection, schedule: Q04DX002 (ip), vehicle: water) was 275 % of control and 277 % of control. For the same molecule, the T/C (dose: 12.5 mg/kg/injection, schedule: Q04DX002 (ip), vehicle: water) was 275 % of control and 277 % of control and the T/C (dose: 25.0 mg/kg/injection, schedule: Q04DX002 (ip), vehicle: water) was 90 % of control.
For O=C(O)CCCc1ccccc1[N+](=O)[O-], the T/C (dose: 50.0 mg/kg/injection, schedule: Q01DX009 (ip), vehicle: saline with Tween-80) was 105 % of control, the T/C (dose: 100.0 mg/kg/injection, schedule: Q01DX009 (ip), vehicle: saline with Tween-80) was 105 % of control and the T/C [1] was 103 % of control. For the same molecule, the T/C (dose: 400.0 mg/kg/injection, schedule: Q01DX009 (ip), vehicle: saline with Tween-80) was 105 % of control.
O=C1CN(c2ccccc2)CC(=O)N2CCCN12 was tested, and the T/C (dose: 12.5 mg/kg/injection, schedule: Q01DX005 (ip), vehicle: saline with Tween-80) was 100 % of control, the T/C (dose: 25.0 mg/kg/injection, schedule: Q01DX005 (ip), vehicle: saline with Tween-80) was 96 % of control and the T/C (dose: 50.0 mg/kg/injection, schedule: Q01DX005 (ip), vehicle: saline with Tween-80) was 100 % of control.

From PubChem BioAssay AID330 (DTP/NCI, 2004)
